In patent publication EP0393529A1, “5,11-dihydro-6H-dipyrido [3,2-b:2',3'-e][1,4]diazepin-6-ones and their use in the prevention or treatment of AIDS” (Boehringer Ingelheim Pharmaceuticals Inc., priority 1989, dated 1990):
Read-outs that look alike come from different tables or passages of the source.

Assays:
[1] = target: T1, HIV-1 reverse transcriptase (Human immunodeficiency virus type 1 group M subtype B, UniProt P03367); test: Reverse Transcriptase (RT) Assay (RNA-dependent DNA polymerase activity, cell-free, 3H-dGTP incorporation); assay type: biochemical; conditions: read-out: RT Inhibition % @ 10µg/ml
T1 construct: Reverse transcriptase enzyme from the LAV strain; made in house; host or cells: E. coli strain JM109, clone pBRTprt1+ in vector pIBI21 (lac promoter)
Experimental: After removal of the insoluble debris by centrifugation, the protein is precipitated by the addition of 3 volumes of saturated aqueous ammonium sulfate.
The 2X concentrated stock reaction mixture is aliquoted and stored at -20°C. […] This enzyme assay has been adapted to a 96 well microtiter plate system, and has been previously described (6). […] Twenty µl of 0.12-0.5M EDTA are added to the first three wells of the microtiter plate.
This group serves as background polymerization which is subtracted from all other groups. Twenty-five µl of the 2X reaction mixture are added to all wells and the assay is allowed to incubate at room temperature for 60 minutes. […] The microtiter plate is incubated for 15 minutes at 4°C and the precipitate is fixed onto #30 glass fiber paper (Schleicher & Schuell) using a Skatron semi-automatic harvester. […] Each vial receives 2 mls of scintillation cocktail and is counted in a Beckman beta counter.

[2] = test system: HTLV-IIIB strain of HIV-1; test: Human T-Cell Culture Assay (syncytia formation in C8166 cells); assay type: cell-based; conditions: Human immunodeficiency virus 1, IIIB, 96 h, syncytia read four days after virus challenge, read-out: T-Cell Culture Assay(IC₅₀)
Experimental: In order to confirm that compounds which are active in the RT Assay also have the ability to inhibit HIV replication in a living system, compounds according to the invention were also tested in the human T-Cell Culture Assay described below.
Assay Theory: Formation of syncytia is a feature of in vitro cultures of CD4+ T-cells infected with HIV-1. In this assay, T-cells are treated with a putative replication inhibiting compound and then infected with HIV-1. After incubation the culture is checked for the formation of syncytia. The absence or reduction is the number of syncytia is used as a measure of the test compound's ability to inhibit HIV replication.
Assay Method: The target cells, designated C8166, are a subclone of human lymphoma cells of T-cell origin and are established at an initial density of 5x10⁴ per 100 ul in RPMI 1640 (+ 10% fetal bovine serum) culture medium in 96 well flat bottom plates. A selected amount of test compound, dissolved in DMSO is included. After 24 hours, 50-100 TCID50's (the dose that results in induced effect in 50% of test cultures) of the HTLV-IIIB strain of HIV-1 (2) are innoculated into each culture. Control cultures receive compound or virus only. […] The percent inhibition by the test compound is determined by comparison with control values. […]

Row | Structure (SMILES) | inhibition at 10 µg/mL ([1]; 10µg/ml compound) [%] | IC50 [2] [µM] | inhibition at 10 µg/mL [1] [%]
1 | CCCN1c2ncccc2NC(=O)c2cccnc21 [Example 2, 5,11-Dihydro-11-propyl-6H-dipyrido[3,2-b:2′,3′-e][1,4]diazepin-6-one] | 94 |  | 
2 | CCCN1c2ncccc2C(=O)N(C)c2cccnc21 [Example 3, 5,11-Dihydro-5-methyl-11-propyl-6H-dipyrido[3,2-b:2′,3′-e][1,4]diazepin-6-one] | 94 |  | 
3 | CCN1C(=O)c2cccnc2N(CC)c2ncccc21 [Example 4, 5,11-Diethyl-5,11-dihydro-6H-dipyrido[3,2-b:2′,3′-e][1,4]diazepin-6-one] | 98 | 190 | 
4 | CCN1c2ncccc2C(=O)N(C)c2cccnc21 [Example 8, 5,11-Dihydro-11-ethyl-5-methyl-6H-dipyrido[3,2-b:2′,3′-e][1,4]diazepin-6-one] |  |  | 100
